The first experiment relates to SARS-CoV-2. The experiment can be described thus: microbe, parasite or virus in culture. It counts as cell-based. Conditions: Severe acute respiratory syndrome coronavirus 2, Vero, 48 h, Vero cells; virus yield, 48 h post-infection; read-out: Anti-SARS-COV-2 activity in Vero cells EC50.
As for `Nc1cnn([C@@H]2O[C@H](CO)C(O)C2O)c(=O)n1` (stereo partly drawn), the EC50 is under 10 µM.
For `COc1cnn([C@@H]2O[C@H](CO)C(O)C2O)c(=O)n1` (stereo partly drawn), the EC50 is under 10 µM.
Take `Nc1nccc2c1ncn2[C@@H]1O[C@H](CO)C(O)C1O` (stereo partly drawn): the concentration giving a half-maximal response (EC50) turned out to be 6 µM.
Same read-out and setting: then `OC[C@H]1O[C@@H](n2cnc3c(S)ncnc32)C(O)C1O` (stereo partly drawn), with 11.1 µM; and `CC1(O)C(O)[C@@H](CO)O[C@H]1n1ccc(N)nc1=O` (stereo partly drawn), with 9.2 µM; and `CC1(O)C(O)[C@@H](CO)O[C@H]1n1cc(F)c2c(N)ncnc21` (stereo partly drawn), with 7.6 µM.
For the molecule `COc1ncnc2c1c(C(F)(F)F)cn2[C@@H]1O[C@H](CO)C(O)C1(C)O` (stereo partly drawn), the EC50 is under 10 µM.
As to `CC1(F)C[C@@H](CO)O[C@H]1n1ccc(=O)[nH]c1=O` (stereo partly drawn), the EC50 stood at 10 µM.
On the same count and under the same terms, then `[N-]=[N+]=NC1C(O)[C@@H](CO)O[C@H]1n1ccc(=O)[nH]c1=O` (stereo partly drawn), with under 10 µM.
On the same count and under the same terms, under `C#CC1C(O)[C@@H](CO)O[C@H]1n1cc(F)c(=O)[nH]c1=O` (stereo partly drawn) stands under 10 µM; under `[N-]=[N+]=NC1C[C@@H](COC(=O)c2ccccc2)O[C@H]1n1ccc(=O)[nH]c1=O` (stereo partly drawn), 10 µM.
Take `O=c1ccn([C@@H]2O[C@H](CO)CC2F)c(=O)[nH]1` (stereo partly drawn): the EC50 was under 10 µM.
Still for that read-out and setting: under `NC1C=CN([C@@H]2O[C@H](CO)CC2(Cl)Cl)C(=O)N1` (stereo partly drawn) stands under 10 µM; under `Nc1ccn([C@@H]2O[C@@](CO)(COC(F)F)[C@@H](O)[C@H]2F)c(=O)n1`, under 10 µM.
Still for that read-out and setting: under `Nc1ccn([C@@H]2O[C@@](CO)(C3CCO3)C(O)C2F)c(=O)n1` (stereo partly drawn) stands under 10 µM.
Same read-out and setting: under `C#C[C@]1(CO)O[C@@H](n2cnc3c(N)ncnc32)C(O)C1O` (stereo partly drawn) stands under 10 µM; under `C#C[C@]1(CO)O[C@@H](N2C=CC(N)NC2=O)[C@H](O)[C@@H]1O` (stereo partly drawn), under 10 µM.
Consider `O=c1ccn([C@@H]2C[C@H](CO)C(O)C2O)c(=O)[nH]1` (stereo partly drawn), for which the EC50 is under 10 µM.
The same measure, in the same setting: under `Nc1nc2c(ncn2[C@@H]2C[C@H](CO)C(O)C2O)c(=O)[nH]1` (stereo partly drawn) stands under 10 µM; under `Nc1ncnc2c1ccn2[C@@H]1C[C@H](CO)C(O)C1O` (stereo partly drawn), under 10 µM.
Take `Nc1ncnc2c1ncn2[C@@H]1C[C@H](CO)C(O)C1O` (stereo partly drawn): the EC50 was under 10 µM.
With `CC(C)C(=O)OC[C@@H]1OC[C@H](n2cnc3c(Cl)nc(Cl)nc32)O1`, the concentration giving a half-maximal response (EC50) stood at 2.3 µM.
As to `COc1nc(Cl)nc2c1ncn2[C@H]1CO[C@@H](CO)O1`, the EC50 is under 10 µM.
On to `Nc1nc(N)c2ncn([C@H]3CO[C@@H](CO)O3)c2n1`, for which the EC50 came to 10 µM.
Still for that read-out and setting: under `Nc1nc(Cl)nc2c1ncn2[C@H]1CO[C@@H](CO)O1` stands over 10 µM; under `OC[C@@H]1OC[C@H](n2cnc3c(Cl)nc(Cl)nc32)O1`, under 10 µM; under `OC[C@@H]1CC[C@H](n2cnc3c(Cl)nc(Cl)nc32)C1`, under 10 µM.
For the molecule `OC[C@@H]1C=C[C@H](n2cnc3c(Cl)nc(Cl)nc32)C1`, the EC50 was under 10 µM.
Still for that read-out and setting: then `Nc1ncnc2c([C@H]3O[C@@H](CO)C(O)C3O)cnn12` (stereo partly drawn), with under 10 µM.
The same measure, in the same setting: under `Nc1ncnc2c([C@@H]3C[C@H](CO)C(O)C3O)c[nH]c12` (stereo partly drawn) stands under 10 µM; under `OC[C@H]1C[C@@H](c2c[nH]c3c(O)ncnc23)C(O)C1O` (stereo partly drawn), under 10 µM.
Same read-out and setting: under `O=c1[nH]c(=O)n([C@H]2C[C@@H](CO)C(O)C2O)cc1F` (stereo partly drawn) stands under 10 µM.
Take `Nc1nc(O)c2[nH]cc([C@@H]3C[C@H](CO)C(O)C3O)c2n1` (stereo partly drawn): the EC50 is under 10 µM.
On to `OC[C@@H]1O[C@H](n2nnc3c(O)ncnc32)C(O)C1O` (stereo partly drawn), for which the EC50 is under 10 µM.
Still for that read-out and setting: under `Nc1ncnc2c1cnn2[C@H]1O[C@@H](CO)C(O)C1O` (stereo partly drawn) stands under 10 µM.
As to `OC[C@@H]1O[C@H](n2ncc3c(S)ncnc32)C(O)C1O` (stereo partly drawn), the EC50 is under 10 µM.
As for `O=c1ccn([C@H]2CC(F)(F)[C@@H](CO)S2)c(=O)[nH]1`, the EC50 was under 10 µM.
In the case of `CC1(O)C(O)[C@H](n2ccc(NO)nc2=O)S[C@@H]1CO` (stereo partly drawn), the 50% effective concentration (EC50) worked out at 1.2 µM.
The same measure, in the same setting: under `CC1(O)C(O)[C@H](n2ccc(N)nc2=O)O[C@@H]1CO` (stereo partly drawn) stands 0.4 µM.
Still for that read-out and setting: under `O=c1nc(NO)ccn1C1CCC(CO)O1` (stereo not drawn) stands 2.5 µM; under `O=c1ccn([C@H]2CC[C@@H](CO)O2)c(=O)[nH]1`, 10 µM; under `Nc1ccn([C@H]2CC[C@@H](CO)O2)c(=O)n1`, under 10 µM.
The same measure, in the same setting: under `O=c1cnn([C@@H]2O[C@H](CO)C(O)C2O)c(=O)[nH]1` (stereo partly drawn) [drawing 46] stands 0.75 µM; under `C[C@@]1(O)C(O)[C@@H](CO)O[C@H]1n1ncc(=O)[nH]c1=O` (stereo partly drawn) [drawing 50], 10 µM.

The same experiment, now with this note: Severe acute respiratory syndrome coronavirus 2, Vero, 48 h, read-out: Anti-SARS-COV-2 activity in Vero cells EC50.
Consider `CC(C)OC(=O)[C@H](C)N[P@](=O)(OC[C@H]1O[C@@H](n2ncc(=O)[nH]c2=O)C(O)C1O)Oc1ccccc1` (stereo partly drawn), for which the concentration for a half-maximal effect (EC50) was under 10 µM.
`CC(C)OC(=O)[C@H](C)N[P@](=O)(OC[C@H]1O[C@@H](n2ncc(=O)[nH]c2=O)[C@](C)(O)C1O)Oc1ccccc1` (stereo partly drawn): the EC50 came to 10 µM.
Still for that read-out and setting: then `CC(C)OC(=O)[C@H](C)NP(=O)(OC[C@H]1O[C@@H](n2cnc3c(N)ncnc32)C(C)(O)C1O)Oc1ccccc1` (stereo partly drawn), with under 10 µM.
Turning to `CC(C)OC(=O)[C@H](C)N[P@@](=O)(OC[C@H]1O[C@@H](n2ccc(=O)[nH]c2=O)C(F)C1O)Oc1ccccc1` (stereo partly drawn), the EC50 is under 10 µM.
On to `C#C[C@]1(CO[P@@](=O)(N[C@@H](C)C(=O)OC(C)C)Oc2ccccc2)O[C@@H](n2ccc(=O)[nH]c2=O)[C@H](O)[C@@H]1O`, for which the EC50 is under 10 µM.
Same read-out and setting: under `CC(C)OC(=O)[C@H](C)NP(=O)(OC[C@H]1C[C@@H](n2cnc3c(N)ncnc32)C(O)C1O)Oc1ccccc1` (stereo partly drawn) stands under 10 µM; under `Nc1nc2c(ncn2[C@H]2CO[C@@H](CO)O2)c(=O)[nH]1`, over 10 µM; under `CCOC(=O)[C@H](C)NP(=O)(OC[C@@H]1OC[C@H](n2cnc3c(OC)nc(N)nc32)O1)Oc1ccccc1` (stereo partly drawn), over 10 µM.
For `CC(C)OC(=O)[C@H](C)N[P@](=O)(OC[C@@H]1OC[C@H](n2cnc3c(Cl)nc(Cl)nc32)O1)Oc1ccccc1`, the EC50 is over 10 µM.
The same measure, in the same setting: under `CC(C)OC(=O)[C@H](C)NP(=O)(OC[C@@H]1C=C[C@H](n2cnc3c(Cl)nc(Cl)nc32)C1)Oc1ccccc1` (stereo partly drawn) stands under 10 µM.
Take `CC(C)OC(=O)[C@H](C)NP(=O)(OC[C@@H]1CC[C@H](n2cnc3c(Cl)nc(Cl)nc32)C1)Oc1ccccc1` (stereo partly drawn): the 50% effective concentration (EC50) was under 10 µM.
As for `CC(C)OC(=O)[C@H](C)NP(=O)(OC[C@H]1O[C@@H](n2ccc(N)nc2=O)C(O)C1(C)O)Oc1ccccc1` (stereo partly drawn), the concentration for a half-maximal effect (EC50) came to 9.3 µM.

The experiment is the same for the next values; noted with them: Severe acute respiratory syndrome coronavirus 2, Vero, 48 h, read-out: Anti-SARS-COV-2 activity in Vero cells EC90.
In the case of `CC(C)OC(=O)[C@H](C)NP(=O)(OC[C@H]1O[C@@H](n2ccc(N)nc2=O)C(O)C1(C)O)Oc1ccccc1` (stereo partly drawn), the EC90 is over 10 µM.

Staying with this experiment, now noted: Severe acute respiratory syndrome coronavirus 2; Vero cells; virus yield, 48 h post-infection; read-out: Anti-SARS-COV-2 activity in Vero cells EC90.
Take `Nc1nccc2c1ncn2[C@@H]1O[C@H](CO)C(O)C1O` (stereo partly drawn): the EC90 was 15.2 µM.
In the case of `OC[C@H]1O[C@@H](n2cnc3c(S)ncnc32)C(O)C1O` (stereo partly drawn), the 90% effect concentration (EC90) was determined as 23.5 µM.
Still for that read-out and setting: then `CC1(O)C(O)[C@@H](CO)O[C@H]1n1ccc(N)nc1=O` (stereo partly drawn), with 29.6 µM; and `CC1(O)C(O)[C@@H](CO)O[C@H]1n1cc(F)c2c(N)ncnc21` (stereo partly drawn), with 28.8 µM.
Same read-out and setting: then `CC(C)C(=O)OC[C@@H]1OC[C@H](n2cnc3c(Cl)nc(Cl)nc32)O1`, with 6.5 µM.
Still for that read-out and setting: then `CC1(O)C(O)[C@H](n2ccc(NO)nc2=O)S[C@@H]1CO` (stereo partly drawn), with 8.7 µM; and `CC1(O)C(O)[C@H](n2ccc(N)nc2=O)O[C@@H]1CO` (stereo partly drawn), with 3.6 µM; and `O=c1nc(NO)ccn1C1CCC(CO)O1` (stereo not drawn), with 83.4 µM.
With `O=c1cnn([C@@H]2O[C@H](CO)C(O)C2O)c(=O)[nH]1` (stereo partly drawn) [drawing 46], the EC90 is 2.5 µM.

The experiment is the same for the next values; noted with them: Vero cells; virus yield, 48 h post-infection; read-out: Anti-SARS-COV-2 activity in Vero cells EC50.
Regarding `C[C@@]1(O)C(O)[C@@H](CO)O[C@H]1n1ncc(=O)[nH]c1=O` (stereo partly drawn) [drawing 58], the EC50 was under 10 µM.

The target of the next experiment is SARS-CoV-2 RdRp complex (nsp12-nsp7-nsp8) (Severe acute respiratory syndrome coronavirus 2, UniProt P0DTD1).
Assay: not given
It counts as biochemical. Particulars: concentrations of 1, 10 and 100 μM.
Consider `O=c1cnn([C@@H]2O[C@H](CO)C(O)C2O)c(=O)[nH]1` (stereo partly drawn) [drawing 105], for which the “inhibition of RNA synthesis by RdRp complex” value is “not significantly inhibited”.

Staying with this experiment, now noted: concentrations of 250 and 500 μM.
As to `O=c1cnn([C@@H]2O[C@H](CO)C(O)C2O)c(=O)[nH]1` (stereo partly drawn) [drawing 105], the “inhibition of RNA synthesis by RdRp complex” value is “significant inhibition”.

As usually defined, the EC50 is the midpoint of the concentration-response curve. A word on the EC90: it is the point of the concentration-response curve where the effect stands at 90%.

For the origin of these results see US20240238323A1, “MODIFIED NUCLEOSIDES AND NUCLEOTIDES ANALOGS AS ANTIVIRAL AGENTS FOR CORONA AND OTHER VIRUSES” (Emory University, priority 2021, published 2024).
